Laboratory results: paper PMC3835519 (Aquatic toxicology (Amsterdam, Netherlands), 2012)
Like-named read-outs stand apart in the source and are kept apart here.

How the values were obtained:
[1] = assay type: in vitro ADME, Mus musculus
[2] = assay type: in vitro ADME, Pimephales promelas; conditions: all three fathead minnow subcellular fractions; significant = three times the background
[3] = assay type: in vitro ADME, Chelydra serpentina serpentina; conditions: snapping turtle S9; 120 min; 1 mg protein
[4] = assay type: in vitro ADME, Cyprinus carpio; conditions: S9 of smaller (likely younger, juvenile) carp population; mean ± SD, N = 3
[5] = tested on: purified porcine esterases; conditions: ref Roberts et al., 2011a, b; cited from earlier work

Structure (SMILES) | TBMB metabolite peaks in chromatograms of incubations ([1]; mouse incubations, significant = three times the background) | TBMB metabolite peaks in chromatograms of incubations [2] | difference in TBB metabolism between age classes ([1]; S9, 4-month-old vs 2-month-old male mice) | metabolism of TBB (loss of parent vs heat-inactivated control) [3] | metabolic rate of TBB [4] [pmoles TBB mg^−1 min^−1] | metabolism by esterases [5]
COC(=O)c1cc(Br)c(Br)c(Br)c1Br [TBMB, 2,3,4,5-tetrabromomethylbenzoate] | not significant | Significant peaks | – | – | – | –
CCCCC(CC)COC(=O)c1cc(Br)c(Br)c(Br)c1Br (stereo not drawn) [TBB, 2-ethylhexyl 2,3,4,5-tetrabromobenzoate] | – | – | No difference | not metabolized | 1.30 ± 0.62 | rapidly metabolize
